Numbered stars: 1 amine (or outer) side, 2 acyl side, 3 side chain; on linkers, the order of the positions; unused ones are H or OH. Bridge positions count the residues as written; N and C are the ends. Square brackets hold non-standard residues; d marks the D form. Peptide text beside a SMILES is read from it. * marks the point of attachment. C20 diacid = O=C(O)CCCCCCCCCCCCCCCCCCC(=O)*; γGlu = O=C(O)[C@H](CCC(=O)[*:2])N[*:1]; NMeI = CC[C@H](C)[C@H](NC)C(=O)O; Sar = CNCC(=O)O
target: T1, human calcitonin receptor (hCTR2) (Homo sapiens, UniProt P30988); experiment: hCTR2 assay: induction of cAMP (AlphaScreen cAMP Assay kit) in COS7 cells expressing hCTR2; format: cell-based; settings: not given
T1 construct: expressed in transfected cells
T1 sequence (P30988 25-474): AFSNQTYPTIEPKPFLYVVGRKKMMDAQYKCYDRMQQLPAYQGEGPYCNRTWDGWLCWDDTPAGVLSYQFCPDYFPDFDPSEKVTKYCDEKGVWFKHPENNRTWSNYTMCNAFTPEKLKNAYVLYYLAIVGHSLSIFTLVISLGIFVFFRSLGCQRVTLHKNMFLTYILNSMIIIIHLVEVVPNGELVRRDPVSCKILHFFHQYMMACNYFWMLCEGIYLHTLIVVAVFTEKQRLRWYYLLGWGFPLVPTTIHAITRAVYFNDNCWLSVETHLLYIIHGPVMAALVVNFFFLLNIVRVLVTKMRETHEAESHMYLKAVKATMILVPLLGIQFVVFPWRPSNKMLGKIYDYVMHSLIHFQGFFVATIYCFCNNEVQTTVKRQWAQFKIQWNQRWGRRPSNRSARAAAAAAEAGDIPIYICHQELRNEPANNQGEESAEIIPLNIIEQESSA
Method in brief: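 COS7 stable hCTR2 clone (RAMP-free); peptide dose-response 15 min 37° C in Tyrode pH 7.4 + 100 µM IBMX + 0.1% casein; lysis 10 min RT; AlphaScreen cAMP; 4PL fit.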

Compound	EC50
CC[C@H](C)[C@@H](C(=O)N[C@H](CC(C)C)C(=O)N[C@@H](CO)C(=O)N[C@@H](CO)C(=O)N[C@H](C(=O)N[C@@H](CC(N)=O)C(=O)N[C@H](C(=O)NCC(=O)N[C@@H](CO)C(=O)N[C@@H](CC(N)=O)C(=O)N[C@H](C(=O)N1CCC[C@H]1C(N)=O)[C@@H](C)O)C(C)C)[C@@H](C)O)N(C)C(=O)[C@H](C)NC(=O)CN(C)C(=O)[C@H](Cc1ccccc1)NC(=O)[C@H](CC(N)=O)NC(=O)[C@H](CC(N)=O)NC(=O)[C@H](CO)NC(=O)[C@H](CO)NC(=O)[C@H](Cc1c[nH]cn1)NC(=O)[C@H](Cc1c[nH]cn1)NC(=O)[C@H](CC(C)C)NC(=O)[C@H](Cc1ccccc1)NC(=O)[C@H](CCC(=O)O)NC(=O)[C@H](C)NC(=O)[C@H](CC(C)C)NC(=O)[C@H](CCCNC(=N)N)NC(=O)[C@H](CCC(N)=O)NC(=O)[C@@H](NC(=O)[C@H](C)NC(=O)[C@@H]1CSSC[C@H](NC(=O)[C@H](CCCNC(=N)N)NC(=O)CC[C@H](NC(=O)CCCCCCCCCCCCCCCCCCC(=O)O)C(=O)O)C(=O)N[C@@H](CC(N)=O)C(=O)N[C@@H]([C@@H](C)O)C(=O)N[C@@H](C)C(=O)N[C@@H]([C@@H](C)O)C(=O)N1)[C@@H](C)O [Compound 15, [19CD]-isoGlu-RC()NTA TC()ATQRLAEFLHHSSNNF-Gly(Me)-A-Ile(Me)-DLeu-SSTNVGSNTP-NH2] ({C20 diacid-γGlu}-RCNTATCATQRLAEFLHHSSNNF[Sar]A[NMeI][dL]SSTNVGSNTP-NH2; disulfide 2-7)	0.16 nM
CC[C@H](C)[C@@H](C(=O)N[C@@H](CC(C)C)C(=O)N[C@H](CO)C(=O)N[C@@H](CO)C(=O)N[C@H](C(=O)N[C@@H](CC(N)=O)C(=O)N[C@H](C(=O)NCC(=O)N[C@@H](CO)C(=O)N[C@@H](CC(N)=O)C(=O)N[C@H](C(=O)N1CCC[C@H]1C(N)=O)[C@@H](C)O)C(C)C)[C@@H](C)O)N(C)C(=O)[C@H](C)NC(=O)CN(C)C(=O)[C@H](Cc1ccccc1)NC(=O)[C@H](CC(N)=O)NC(=O)[C@H](CC(N)=O)NC(=O)[C@H](CO)NC(=O)[C@H](CO)NC(=O)[C@H](Cc1c[nH]cn1)NC(=O)[C@H](Cc1c[nH]cn1)NC(=O)[C@H](CC(C)C)NC(=O)[C@H](Cc1ccccc1)NC(=O)[C@H](CCC(=O)O)NC(=O)[C@H](C)NC(=O)[C@H](CC(C)C)NC(=O)[C@H](CCCNC(=N)N)NC(=O)[C@H](CCC(N)=O)NC(=O)[C@@H](NC(=O)[C@H](C)NC(=O)[C@@H]1CSSC[C@H](NC(=O)[C@H](CCCNC(=N)N)NC(=O)CC[C@H](NC(=O)CCCCCCCCCCCCCCCCCCC(=O)O)C(=O)O)C(=O)N[C@@H](CC(N)=O)C(=O)N[C@@H]([C@@H](C)O)C(=O)N[C@@H](C)C(=O)N[C@@H]([C@@H](C)O)C(=O)N1)[C@@H](C)O [Compound 23, [19CD]-isoGlu-RC()NTATC()ATQRLAEFLHHSSNNF-Gly(Me)-A-Ile(Me)-L-DSer-STNVGSNTP-NH2] ({C20 diacid-γGlu}-RCNTATCATQRLAEFLHHSSNNF[Sar]A[NMeI]L[dS]STNVGSNTP-NH2; disulfide 2-7)	0.074 nM
CC[C@H](C)[C@@H](C(=O)N[C@@H](CC(C)C)C(=O)N[C@@H](CO)C(=O)N[C@@H](CO)C(=O)N[C@H](C(=O)N[C@@H](CC(N)=O)C(=O)N[C@H](C(=O)NCC(=O)N[C@@H](CO)C(=O)N[C@@H](CC(N)=O)C(=O)N[C@H](C(=O)N1CCC[C@H]1C(N)=O)[C@@H](C)O)C(C)C)[C@@H](C)O)N(C)C(=O)[C@H](C)NC(=O)CN(C)C(=O)[C@H](Cc1ccccc1)NC(=O)[C@H](CC(N)=O)NC(=O)[C@H](CC(N)=O)NC(=O)[C@H](CO)NC(=O)[C@H](CO)NC(=O)[C@H](Cc1c[nH]cn1)NC(=O)[C@H](Cc1c[nH]cn1)NC(=O)[C@H](CC(C)C)NC(=O)[C@H](Cc1ccccc1)NC(=O)[C@H](CCC(=O)O)NC(=O)[C@H](C)NC(=O)[C@@H](CC(C)C)NC(=O)[C@H](CCCNC(=N)N)NC(=O)[C@H](CCC(N)=O)NC(=O)[C@@H](NC(=O)[C@H](C)NC(=O)[C@@H]1CSSC[C@H](NC(=O)[C@H](CCCNC(=N)N)NC(=O)CC[C@H](NC(=O)CCCCCCCCCCCCCCCCCCC(=O)O)C(=O)O)C(=O)N[C@@H](CC(N)=O)C(=O)N[C@@H]([C@@H](C)O)C(=O)N[C@@H](C)C(=O)N[C@@H]([C@@H](C)O)C(=O)N1)[C@@H](C)O [Compound 6, [19CD]-isoGlu-RC()NTATC()ATQR-DLeu-AEFLHHSSNNF-Gly(Me)-A-Ile(Me)-LSSTNVGSNTP-NH2] ({C20 diacid-γGlu}-RCNTATCATQR[dL]AEFLHHSSNNF[Sar]A[NMeI]LSSTNVGSNTP-NH2; disulfide 2-7)	7.8 nM
CC[C@H](C)[C@@H](C(=O)N[C@@H](CC(C)C)C(=O)N[C@@H](CO)C(=O)N[C@@H](CO)C(=O)N[C@H](C(=O)N[C@@H](CC(N)=O)C(=O)N[C@H](C(=O)NCC(=O)N[C@@H](CO)C(=O)N[C@@H](CC(N)=O)C(=O)N[C@H](C(=O)N1CCC[C@H]1C(N)=O)[C@@H](C)O)C(C)C)[C@@H](C)O)N(C)C(=O)[C@H](C)NC(=O)CN(C)C(=O)[C@H](Cc1ccccc1)NC(=O)[C@H](CC(N)=O)NC(=O)[C@H](CC(N)=O)NC(=O)[C@H](CO)NC(=O)[C@H](CO)NC(=O)[C@H](Cc1c[nH]cn1)NC(=O)[C@H](Cc1c[nH]cn1)NC(=O)[C@H](CC(C)C)NC(=O)[C@@H](Cc1ccccc1)NC(=O)[C@H](CCC(=O)O)NC(=O)[C@H](C)NC(=O)[C@H](CC(C)C)NC(=O)[C@H](CCCNC(=N)N)NC(=O)[C@H](CCC(N)=O)NC(=O)[C@@H](NC(=O)[C@H](C)NC(=O)[C@@H]1CSSC[C@H](NC(=O)[C@H](CCCNC(=N)N)NC(=O)CC[C@H](NC(=O)CCCCCCCCCCCCCCCCCCC(=O)O)C(=O)O)C(=O)N[C@@H](CC(N)=O)C(=O)N[C@@H]([C@@H](C)O)C(=O)N[C@@H](C)C(=O)N[C@@H]([C@@H](C)O)C(=O)N1)[C@@H](C)O [Compound 9, [19CD]-isoGlu-RC()NTATC()ATQRLAE-DPhe-LHHSSNNF-Gly(Me)-A-Ile(Me)-LSSTNVGSNTP-NH2] ({C20 diacid-γGlu}-RCNTATCATQRLAE[dF]LHHSSNNF[Sar]A[NMeI]LSSTNVGSNTP-NH2; disulfide 2-7)	1.1 nM

same assay, conditions: cAMP induction in COS7 cells expressing hCTR2; average of a minimum of 3 determinations; read-out: hCTR2 EC50

Compound	EC50
CC(C)C[C@H](NC(=O)[C@H](C)NC(=O)CN(C)C(=O)[C@H](Cc1ccccc1)NC(=O)[C@H](CC(N)=O)NC(=O)[C@H](CC(N)=O)NC(=O)[C@H](CO)NC(=O)[C@H](CO)NC(=O)[C@H](Cc1c[nH]cn1)NC(=O)[C@H](Cc1c[nH]cn1)NC(=O)[C@H](CC(C)C)NC(=O)[C@H](Cc1ccccc1)NC(=O)[C@H](CCC(=O)O)NC(=O)[C@H](C)NC(=O)[C@H](CC(C)C)NC(=O)[C@H](CCCNC(=N)N)NC(=O)[C@H](CCC(N)=O)NC(=O)[C@@H](NC(=O)[C@H](C)NC(=O)[C@@H]1CSSC[C@H](NC(=O)[C@H](CCCNC(=N)N)NC(=O)CC[C@H](NC(=O)CCCCCCCCCCCCCCCCCCC(=O)O)C(=O)O)C(=O)N[C@@H](CC(N)=O)C(=O)N[C@@H]([C@@H](C)O)C(=O)N[C@@H](C)C(=O)N[C@@H]([C@@H](C)O)C(=O)N1)[C@@H](C)O)C(=O)N[C@@H](CO)C(=O)N[C@@H](CO)C(=O)N[C@H](C(=O)N[C@@H](CC(N)=O)C(=O)N[C@H](C(=O)NCC(=O)N[C@@H](CO)C(=O)N[C@@H](CC(N)=O)C(=O)N[C@H](C(=O)N1CCC[C@H]1C(N)=O)[C@@H](C)O)C(C)C)[C@@H](C)O [Compound 27, [19CD]-isoGlu-RC()NTATC()ATQRLAEFLHHSSNNF-Gly(Me)-ALSSTNVGSNTP-NH2] ({C20 diacid-γGlu}-RCNTATCATQRLAEFLHHSSNNF[Sar]ALSSTNVGSNTP-NH2; disulfide 2-7)	0.14 nM
CC[C@H](C)[C@@H](C(=O)N[C@@H](CC(C)C)C(=O)N[C@@H](CO)C(=O)N[C@@H](CO)C(=O)N[C@H](C(=O)N[C@@H](CC(N)=O)C(=O)N[C@H](C(=O)NCC(=O)N[C@@H](CO)C(=O)N[C@@H](CC(N)=O)C(=O)N[C@H](C(=O)N1CCC[C@H]1C(N)=O)[C@@H](C)O)C(C)C)[C@@H](C)O)N(C)C(=O)[C@H](C)NC(=O)[C@@H](C)NC(=O)[C@H](Cc1ccccc1)NC(=O)[C@H](CC(N)=O)NC(=O)[C@H](CC(N)=O)NC(=O)[C@H](CO)NC(=O)[C@H](CO)NC(=O)[C@H](Cc1c[nH]cn1)NC(=O)[C@H](Cc1c[nH]cn1)NC(=O)[C@H](CC(C)C)NC(=O)[C@H](Cc1ccccc1)NC(=O)[C@H](CCC(=O)O)NC(=O)[C@H](C)NC(=O)[C@H](CC(C)C)NC(=O)[C@H](CCCNC(=N)N)NC(=O)[C@H](CCC(N)=O)NC(=O)[C@@H](NC(=O)[C@H](C)NC(=O)[C@@H]1CSSC[C@H](NC(=O)[C@H](CCCNC(=N)N)NC(=O)CC[C@H](NC(=O)CCCCCCCCCCCCCCCCCCC(=O)O)C(=O)O)C(=O)N[C@@H](CC(N)=O)C(=O)N[C@@H]([C@@H](C)O)C(=O)N[C@@H](C)C(=O)N[C@@H]([C@@H](C)O)C(=O)N1)[C@@H](C)O [Compound 17, [19CD]-isoGlu-RC()NTATC()ATQRLAEFLHHSSNNF-DAla-A-Ile(Me)-LSSTNVGSNTP-NH2] ({C20 diacid-γGlu}-RCNTATCATQRLAEFLHHSSNNF[dA]A[NMeI]LSSTNVGSNTP-NH2; disulfide 2-7)	0.093 nM

From patent publication EP3046573B1, “AMYLIN ANALOGUES” (Zealand Pharma A/S, priority 2013, dated 2015)
